# From patent US8729133B2, “Method for treating cancer” (Cornell University, priority 2006, dated 2014)
# What was measured:
# [1] = test system: lactate levels in brain metastases tumors; assay: Tumor lactate determination by localized 1H MR spectroscopy before and after oral L-Arginine; format: in vivo, human
# Procedure: (§1) L-Arginine hydrochloride was orally administered five times a week, Monday to Friday, during the radiation therapy (RT) course at a dose of about 10 grams dissolved/mixed with about 100 ml of water and administered to a patient/host from about 15-55 to about 20-65 minutes before each fraction of RT. Radiation therapy was administered to patients using techniques known to one skilled in the art of treating cancer patients. After administering L-Arginine hydrochloride to a patient as discussed above, change in lactate levels in the tumor cells was monitored by localized ^1H NMR spectroscopy and compared to those who received placebo.
# Single-voxel MR spectroscopic data were obtained by using a double-SE point-resolved spectroscopy (PRESS) sequence with one-pulse water signal suppression mainly from metabolically active fleshy parts (contrast-enhanced areas) of the lesions, while avoiding contamination from scalp fat. Appropriate automatic shimming and water suppression were achieved by using 4-8-Hz line width, 1-kHz spectral width, and the automated software developed by the manufacturer. Spectroscopic data from cubic volumes of 1.5×1.5×1.5-2×2×3 cm were obtained by using the PRESS sequence with 1500/135 ms (TR/TE), 128-256 averages, 1024 data points, and 4000-Hz spectrum width. In most examinations, a voxel size of 2×2×2 cm3 was employed.
# The time domain signal intensity was apodized and processed to remove the residual water signal. Post-processing of the spectroscopic data consisted of frequency shift and phase and linear baseline corrections after Fourier transformation. […] Lactate (Lac) peak was calculated at 1.35 ppm (an inverted β-methyl doublet). […] Lactate values were calculated automatically from the area under the peak by using the standard commercial software program provided by the manufacturer.
# L-A-HCl was administered (as stated) to 30 patients with unresectable brain metastases. […] Patients were assessed by brain NMR and/or TC (to asses tumor response) and proton magnetic spectroscopy (to determine the metabolic profile of tumors). […]
# [2] = test system: brain metastases; assay: Randomized study: whole brain radiotherapy with or without oral L-Arginine hydrochloride in patients with unresectable brain metastases (response, survival); format: in vivo, human
# Procedure: as §1
# Patients with imagenologically proven brain metastases and histologically proven primary or metastatic cancer were eligible for the study. The eligibility criteria included the following: RPA-RTOG class II, measurable brain lesion/s by contrast-enhanced CT or MRI, absolute granulocyte count >2000/mm^3, hemoglobin […] (patients with lower levels were transfused), normal renal (serum creatinine <1.5 mg/dL and 24-h creatinine clearance >60 mL/min) and hepatic functions (aspartate aminotransferase and alanine aminotransferase <2.5 times the upper limit of normal) and no prior treatment for brain metastases. A neurosurgeon examined all eligible patients and their complimentary studies to determine whether their metastases were resectable. Eligible patients with unresectable metastases were randomized.
# The present study was performed in accordance with the ethical standards of the Helsinki Declaration. Within two weeks after the diagnosis of brain metastases, eligible patients were randomly assigned to receive whole brain radiotherapy alone (the control group) or L-Arginine monochlorohydrate (L-Arginine Hydrochloride, L-A-HCl) and whole brain radiotherapy. L-Arginine was orally administered, once a day Monday to Friday, during the radiation therapy (RT) course at a dose of about 10 grams, immediately reconstituted with 100 ml of water and given about 55 to 65 minutes before each fraction of RT.
# During RT, all patients were irradiated with ^60Co beams. The whole-brain, of all the individuals enrolled in the study, was treated by two lateral fields to a total dose of 32 Gy in 20 fractions of 1.6 Gy each two times a day with a 6 hours interval between treatments (10 days), followed by a 22.4 Gy boost over the evident lesions with the same fractionation schedule (7 days). The spinal cord dose was limited to 40 Gy.
# The baseline evaluation included a complete history and physical examination, brain contrast-enhanced CT scans and/or MRI scans, chest radiographs, blood counts, blood chemistry and electrocardiography. A Mini Mental Status Exam (MMSE) was performed for screening intellectual impairment. During the treatment, patients were to be seen three times a week, then weekly for up to one month after finishing radiotherapy, and then monthly until the patient died. All patients were followed up, by the radiation and medical oncology research physicians, without further treatment.
# The following criteria defined radiological response and progression. Complete response was defined as a disappearance of all brain lesions seen on contrast-enhanced CT or MRI scans for at least 1 month. Partial response required at least a 50% decrease in brain lesions for at least 1 month. Stable disease was defined as any brain lesion with shrinkage less than 50% or growth less than 25%. Disease progression was defined as any brain lesion in the brain that enlarged more than 25% or any new brain lesion. For measurable disease, standard bi-perpendicular diameters of the two-dimensional tumor image at maximum dimension were applied.
# The following criteria defined symptomatic response and progression. Complete response was defined as disappearance of all neurological-related signs or symptoms seen during a physical exam for at least 1 month, with stable or decreasing steroid dose. […]
# [3] = 30 patients with unresectable brain metastases vs 30 placebo
compound,measurement,setting,value
"Cl.N=C(N)NCCC[C@H](N)C(=O)O [L-Arginine, S(+)-2-Amino-5-[(aminoiminomethyl)amino]pentanoic acid monohydrochloride]",metabolic pattern of the tumors by spectroscopy,"[1]; about 10 grams orally, in about 60 minutes",favorably modified
same,drop of lactate levels in tumors,"[1]; brain metastases, about 60 minutes after about 10 grams orally, NMR (FIG. 2), placebo about 10%",about 50%
same,lactate peak in tumor NMR spectrum after vs before administration,"[1]; brain metastasis, about 60 minutes after about 10 grams orally",decrease
same,survival compared to placebo,[2]; [3],higher
same,tumoral response rates compared to placebo,[2]; [3],higher
same,Overall Response: Complete,[2]; RT-Arginine n = 22,6 number of patients
same,Overall Response: Partial,[2]; RT-Arginine n = 22,13 number of patients
same,Overall Response: Stable Disease,[2]; RT-Arginine n = 22,2 (9%) number of patients (%)
same,Radiologic Response: Complete,[2]; RT-Arginine n = 22,6 number of patients
same,Radiologic Response: Partial,[2]; RT-Arginine n = 22,13 number of patients
same,Radiologic Response: Progressive Disease,[2]; RT-Arginine n = 22,0 number of patients
same,Radiologic Response: Stable Disease,[2]; RT-Arginine n = 22,2 (9%) number of patients (%)
same,Symptomatic Response: Complete,[2]; RT-Arginine n = 22,20 number of patients
same,Symptomatic Response: Partial,[2]; RT-Arginine n = 22,1 number of patients
same,Symptomatic Response: Progressive Disease,[2]; RT-Arginine n = 22,0 (0%) number of patients (%)
same,Symptomatic Response: Stable Disease,[2]; RT-Arginine n = 22,1 (5%) number of patients (%)
same,Overall Response: Total responses,"[2]; RT-Arginine n = 22, ECOG response guidelines",18 (81%) number of patients (%)
same,Symptomatic Response: Total responses,"[2]; RT-Arginine n = 22, about 10 grams orally before each RT fraction",21 (95%) number of patients (%)
same,Radiologic Response: Total responses,"[2]; RT-Arginine n = 22, contrast-enhanced CT or MRI",18 (81%) number of patients (%)
same,Overall Response: Progressive Disease,"[2]; RT-Arginine n = 22, not assessed counted as progressive",1 (5%) number of patients (%)
same,Radiologic Response: Not assessed,"[2]; RT-Arginine n = 22, patients without follow-up scan",1 (5%) number of patients (%)
same,median survival time,"[2]; patients with brain metastases, about 10 grams L-Arginine orally, Kaplan-Meier (FIG. 1), placebo 2 months",8 months
